Assay results taken from the CheMixHub drug solubility set.

Assay: xn = mol fraction of the nth substance listed, in the solute-free solvent

Nc1cccc(S(=O)(=O)c2cccc(N)c2)c1 + CN(C)C=O + O
solubility (g/100 g solution)
Conditions	283.15 K	288.15 K	293.15 K	298.15 K	303.15 K	308.15 K	313.15 K	318.15 K	323.15 K	328.15 K
x2 = 0.02666	0.202	0.267	0.355	0.463	0.615	0.787	1.01	1.26	1.53	1.97
x2 = 0.05806	0.784	1.03	1.32	1.65	2.08	2.63	3.23	3.98	4.79	5.92
x2 = 0.09556	2.09	2.63	3.21	3.95	4.75	5.77	6.85	8.08	9.45	11
x2 = 0.1412	4.93	5.86	6.87	8.09	9.39	10.8	12.4	14.1	15.9	17.7
x2 = 0.1978	7.85	9.25	10.8	12.5	14.2	16.2	18.4	20.5	22.9	25.4
x2 = 0.27	11.4	13	15	16.9	19.1	21.5	23.9	26.7	29.3	32.1
x2 = 0.3652	14.4	16.6	18.8	21.2	23.6	26.3	29.1	31.9	34.6	37.4
x2 = 0.4965	17.8	20.1	22.5	25.2	27.8	30.7	33.8	36.6	39.7	42.6
x2 = 0.6893	20.8	23.1	25.7	28.2	31.1	33.9	36.5	39.4	42.3	45.4

CC(CCc1ccccc1)NCC(O)c1ccc(O)c(C(N)=O)c1.Cl (configuration not stated) + CO + CC#N
solubility (g/100 g solution)
Conditions	288.15 K	293.15 K	298.15 K	303.15 K	308.15 K	313.15 K	318.15 K	323.15 K	328.15 K
x2 = 0.2426	0.0461	0.0674	0.0984	0.137	0.19	0.268	0.388	0.533	0.751
x2 = 0.3544	0.126	0.167	0.222	0.282	0.389	0.49	0.639	0.847	1.1
x2 = 0.4606	0.172	0.234	0.323	0.436	0.58	0.766	1.03	1.38	1.81
x2 = 0.5616	0.411	0.533	0.674	0.884	1.1	1.4	1.74	2.17	2.71
x2 = 0.6577	0.787	0.998	1.23	1.54	1.92	2.35	2.89	3.46	4.2
x2 = 0.7493	1.73	2.02	2.44	2.83	3.37	3.94	4.42	5.29	6.03
x2 = 0.8367	2.23	2.77	3.37	4.11	5.04	6.01	7.18	8.54	10.1
x2 = 0.9202	4.34	5.22	6.18	7.32	8.68	10.1	11.7	13.5	15.6

Cl.N=C(N)N + CO + CCCO
solubility (g/100 g solution)
Conditions	278.15 K	283.15 K	288.15 K	293.15 K	298.15 K	303.15 K	308.15 K	313.15 K	318.15 K	323.15 K
x2 = 0.1726	9.26	10.3	11.5	12.6	13.3	14.4	15.6	17	18.2	19.9
x2 = 0.4458	15.1	16.1	17.4	18.8	20.6	22	23.4	25.3	26.3	28.2
x2 = 0.6523	22.2	23.4	24.9	26.3	27.8	29.2	30.7	32.4	34.1	35.6
x2 = 0.8138	28.3	29.7	31.4	33.1	34.5	36.2	37.6	39.5	40.9	42.3
x2 = 0.9441	33.4	35.1	36.8	38.3	40.2	42.1	43.6	45.5	47.1	48.8

COC(=O)C(C)(C)N=NC(C)(C)C(=O)OC + CO + O
Conditions	solubility (g/100 g solution)
252.55 K, x2 = 0.692	1.72
252.85 K, x2 = 0.914	5.48
252.95 K, x2 = 0.628	1.36
253.15 K, x2 = 0.835	4.25
253.35 K, x2 = 0.511	0.455
253.45 K, x2 = 0.578	0.701
254.15 K, x2 = 0.761	2.82
254.75 K, x2 = 0.692	2.04
255.35 K, x2 = 0.628	1.61
255.55 K, x2 = 0.914	7.08
255.95 K, x2 = 0.578	0.875
255.95 K, x2 = 0.835	5.53
256.55 K, x2 = 0.511	0.546
256.65 K, x2 = 0.761	3.73
257.35 K, x2 = 0.692	3.07
257.95 K, x2 = 0.628	2.02
258.55 K, x2 = 0.578	1.31
259.05 K, x2 = 0.511	0.817
259.85 K, x2 = 0.914	9.9
260.15 K, x2 = 0.835	7.93
260.55 K, x2 = 0.761	5.93
261.05 K, x2 = 0.692	4.39
261.65 K, x2 = 0.628	2.76
262.15 K, x2 = 0.578	2.5
262.75 K, x2 = 0.511	1.35
263.35 K, x2 = 0.914	12.7
263.75 K, x2 = 0.835	9.97
263.95 K, x2 = 0.761	6.93
264.35 K, x2 = 0.692	5.15
264.85 K, x2 = 0.628	4.05
265.25 K, x2 = 0.578	3.25
265.75 K, x2 = 0.511	2.24
265.95 K, x2 = 0.914	14.4
266.15 K, x2 = 0.835	11.5
266.35 K, x2 = 0.761	8.33
267.95 K, x2 = 0.511	3.2
268.05 K, x2 = 0.628	5.71
268.05 K, x2 = 0.692	7.96
268.05 K, x2 = 0.761	9.69
268.05 K, x2 = 0.835	12.8
268.05 K, x2 = 0.914	16.6
268.25 K, x2 = 0.578	5.05
273.25 K, x2 = 0.835	20.2
273.35 K, x2 = 0.511	5.31
273.35 K, x2 = 0.578	7.79
273.35 K, x2 = 0.628	9.15
273.35 K, x2 = 0.914	26.6
273.45 K, x2 = 0.692	12.2
273.55 K, x2 = 0.761	17.3
275.55 K, x2 = 0.914	32
275.65 K, x2 = 0.511	6.38
275.65 K, x2 = 0.578	8.78
275.65 K, x2 = 0.835	25.5
275.75 K, x2 = 0.692	16.8
275.75 K, x2 = 0.761	20.5
275.85 K, x2 = 0.628	12.8
278.15 K, x2 = 0.835	32.7
278.15 K, x2 = 0.914	38.9
278.25 K, x2 = 0.761	27.3
278.35 K, x2 = 0.511	7.35
278.35 K, x2 = 0.578	10.2
278.35 K, x2 = 0.628	16
278.35 K, x2 = 0.692	21.6
280.65 K, x2 = 0.914	47.1
280.75 K, x2 = 0.692	27.6
280.75 K, x2 = 0.761	33.4
280.75 K, x2 = 0.835	39.1
280.85 K, x2 = 0.628	20.5
280.95 K, x2 = 0.578	15.1
281.05 K, x2 = 0.511	9.61
283.05 K, x2 = 0.578	21
283.05 K, x2 = 0.835	51.4
283.05 K, x2 = 0.914	55.7
283.15 K, x2 = 0.692	36.3
283.15 K, x2 = 0.761	44.2
283.45 K, x2 = 0.511	12.7
283.45 K, x2 = 0.628	28.1
285.65 K, x2 = 0.835	62.4
285.65 K, x2 = 0.914	66.9
285.75 K, x2 = 0.578	29.5
285.75 K, x2 = 0.628	39
285.75 K, x2 = 0.692	48.6
285.75 K, x2 = 0.761	56.4
285.85 K, x2 = 0.511	19.1
288.15 K, x2 = 0.578	42.6
288.15 K, x2 = 0.628	55.9
288.25 K, x2 = 0.761	71.5
288.25 K, x2 = 0.835	75.3
288.25 K, x2 = 0.914	78.2
288.35 K, x2 = 0.692	65.6
290.65 K, x2 = 0.628	77.7
290.65 K, x2 = 0.914	86.1
290.75 K, x2 = 0.692	81.5
290.75 K, x2 = 0.761	83.9
290.75 K, x2 = 0.835	85.1
293.15 K, x2 = 0.761	91.5
293.15 K, x2 = 0.835	91.5
293.15 K, x2 = 0.914	91.9
293.25 K, x2 = 0.692	91.2
293.35 K, x2 = 0.628	91.1

Nc1nccnc1Cl + CO + O
solubility (g/100 g solution)
Conditions	278.15 K	283.15 K	288.15 K	293.15 K	298.15 K	303.15 K	308.15 K	313.15 K	318.15 K	323.15 K
x2 = 0.05881	0.0549	0.0728	0.0951	0.118	0.143	0.169	0.195	0.225	0.254	0.284
x2 = 0.1233	0.118	0.155	0.201	0.248	0.298	0.348	0.402	0.461	0.517	0.578
x2 = 0.1942	0.209	0.274	0.352	0.433	0.519	0.604	0.695	0.795	0.89	0.996
x2 = 0.2727	0.322	0.42	0.538	0.661	0.79	0.918	1.06	1.21	1.35	1.51
x2 = 0.3599	0.423	0.542	0.697	0.868	1.06	1.24	1.44	1.66	1.86	2.1
x2 = 0.4576	0.533	0.708	0.918	1.15	1.37	1.6	1.86	2.13	2.4	2.73
x2 = 0.5675	0.656	0.886	1.15	1.42	1.7	1.98	2.31	2.65	3.02	3.44
x2 = 0.6923	0.804	1.06	1.35	1.67	1.97	2.3	2.71	3.13	3.58	4.07
x2 = 0.835	0.917	1.2	1.55	1.95	2.37	2.78	3.25	3.75	4.25	4.86

S=c1[nH]ncs1 + CO + O
solubility (g/100 g solution)
Conditions	278.15 K	283.15 K	288.15 K	293.15 K	298.15 K	303.15 K	308.15 K	313.15 K	318.15 K	323.15 K
x2 = 0.1	0.5	0.691	0.906	1.21	1.6	2.03	2.55	3.35	4.36	5.36
x2 = 0.2	0.926	1.24	1.54	2.06	2.68	3.38	4.35	5.66	6.96	8.64
x2 = 0.3	1.39	1.97	2.65	3.39	4.42	5.59	7.12	9.03	11.2	13.9
x2 = 0.4	2.53	3.26	4.24	5.33	6.73	8.48	10.5	13.2	16.4	19.8
x2 = 0.5	3.89	4.96	6.04	7.5	9.43	11.5	13.7	16.8	20	23.9
x2 = 0.6	5.2	6.6	8.03	9.72	11.6	14	17	19.9	23.3	27.5
x2 = 0.7	6.84	8.43	10.2	12	14.1	16.4	19.3	22.6	26.2	29.6
x2 = 0.8	8.37	10.1	11.9	13.8	16	18.5	21.4	24.6	28.2	31.5
x2 = 0.9	10.1	11.9	13.7	15.8	18	20.5	23.4	26.6	30	33.2
